# Test results from ChEMBL document CHEMBL3351681, “Dual-stage triterpenoids from an African medicinal plant targeting the malaria parasite” (Bioorg Med Chem, 2014).
# Activity calls are given as the source filed them. The rule behind the calls is not given here.
# Assays:
# [1] = Cytotoxicity against human HuH7 cells up to 15 uM after 48 hrs by Alamar Blue assay; type: cell-based; settings: huh-7, 48 h
# Plasmodium berghei [2] = assay: Antiplasmodial activity against GFP-expressing liver stage Plasmodium berghei sporozoites infected in human Huh7 cells preincubated for 1 hr before infection at 5 uM measured after 48 hrs post infection by firefly luciferase reporter gene assay; type: functional; settings: Huh-7
# Plasmodium berghei [3] = assay: Antiplasmodial activity against GFP-expressing liver stage Plasmodium berghei sporozoites infected in human Huh7 cells preincubated for 1 hr before infection at 1 uM measured after 48 hrs post infection by firefly luciferase reporter gene assay; type: functional; settings: Huh-7
# Plasmodium berghei [4] = assay: Antiplasmodial activity against GFP-expressing liver stage Plasmodium berghei sporozoites infected in human Huh7 cells preincubated for 1 hr before infection at 15 uM measured after 48 hrs post infection by firefly luciferase reporter gene assay; type: functional; settings: Huh-7
# Plasmodium berghei [5] = assay: Antiplasmodial activity against GFP-expressing liver stage Plasmodium berghei sporozoites infected in human Huh7 cells preincubated for 1 hr before infection measured after 48 hrs post infection by firefly luciferase reporter gene assay; type: functional, organism-based; settings: Huh-7
SMILES,Activity [1],inhibition at 5 µM (Plasmodium berghei [2]) [%],inhibition (Plasmodium berghei [3]),inhibition (Plasmodium berghei [4]),inhibition at 1 µM (Plasmodium berghei [3]) [%],inhibition at 15 µM (Plasmodium berghei [4]) [%],inhibition (Plasmodium berghei [5]),inhibition (Plasmodium berghei [2])
CO[C@H]1C=C2[C@@H](CC[C@H](O)[C@]2(C)CO)[C@]2(C)CC[C@]3(C)[C@@H]([C@H](C)C[C@@H](O)C=C(C)C)CC[C@@]3(C)[C@H]12 [BALSAMINOL B],Non-toxic,47,,,,,,
CC(C)=C[C@H](O)C[C@@H](C)[C@H]1CC[C@@]2(C)[C@@H]3[C@@H](O)C=C4[C@@H](CC[C@H](O)C4(C)C)[C@]3(C)CC[C@]12C [BALSAMINOL F],Non-toxic,32,Active,Active,,,,
COC(C)(C)/C=C/C[C@@H](C)[C@H]1CC[C@@]2(C)[C@@H]3[C@@H](O[C@H]4O[C@@H](CO)[C@H](O)[C@H](O)[C@@H]4O)C=C4[C@@H](CC[C@H](O)C4(C)C)[C@]3(C)CC[C@]12C [BALSAMINOSIDE A],Toxic,,,,,,,
CO[C@H]1C=C2[C@@H](CC[C@H](O)C2(C)C)[C@]2(C)CC[C@]3(C)[C@@H]([C@H](C)C[C@@H](O)C=C(C)C)CC[C@@]3(C)[C@H]12 [KARAVELAGENIN C],Non-toxic,73,,,27,99,,
CO[C@H]1C=C2[C@@H](CC[C@H](O)C2(C)C)[C@]2(C)CC[C@]3(C)[C@@H]([C@H](C)C[C@H](C=C(C)C)OC(C)=O)CC[C@@]3(C)[C@H]12 [KARAVOATE A],Toxic,93,,,28,,,
CO[C@H]1C=C2[C@@H](CC[C@H](OC(C)=O)C2(C)C)[C@]2(C)CC[C@]3(C)[C@@H]([C@H](C)C[C@H](C=C(C)C)OC(C)=O)CC[C@@]3(C)[C@H]12 [KARAVOATE B],Non-toxic,96,,,60,99,Dose-dependent effect,
CCC(=O)O[C@@H](C=C(C)C)C[C@@H](C)[C@H]1CC[C@@]2(C)[C@@H]3[C@@H](OC)C=C4[C@@H](CC[C@H](O)C4(C)C)[C@]3(C)CC[C@]12C [KARAVOATE C],Non-toxic,60,,,13,,,
CCC(=O)O[C@H]1CC[C@@H]2C(=C[C@H](OC)[C@@H]3[C@@]2(C)CC[C@]2(C)[C@@H]([C@H](C)C[C@H](C=C(C)C)OC(=O)CC)CC[C@@]32C)C1(C)C [KARAVOATE D],Non-toxic,82,,,34,93,,
CCCC(=O)O[C@@H](C=C(C)C)C[C@@H](C)[C@H]1CC[C@@]2(C)[C@@H]3[C@@H](OC)C=C4[C@@H](CC[C@H](O)C4(C)C)[C@]3(C)CC[C@]12C [KARAVOATE E],Toxic,89,,,39,99,,
CCCC(=O)O[C@H]1CC[C@@H]2C(=C[C@H](OC)[C@@H]3[C@@]2(C)CC[C@]2(C)[C@@H]([C@H](C)C[C@H](C=C(C)C)OC(=O)CCC)CC[C@@]32C)C1(C)C [KARAVOATE F],Non-toxic,64,,,11,82,,
CO[C@H]1C=C2[C@@H](CC[C@H](OC(=O)c3ccccc3)C2(C)C)[C@]2(C)CC[C@]3(C)[C@@H]([C@H](C)C[C@H](C=C(C)C)OC(=O)c4ccccc4)CC[C@@]3(C)[C@H]12 [KARAVOATE H],Non-toxic,,inactive,inactive,,,,inactive
CO[C@H]1C=C2[C@@H](CC[C@H](O)C2(C)C)[C@]2(C)CC[C@]3(C)[C@@H]([C@H](C)C[C@H](C=C(C)C)OC(=O)c4ccc([N+](=O)[O-])cc4)CC[C@@]3(C)[C@H]12 [KARAVOATE I],Non-toxic,88,,,34,97,,
CO[C@H]1C=C2[C@@H](CC[C@H](OC(=O)c3ccc([N+](=O)[O-])cc3)C2(C)C)[C@]2(C)CC[C@]3(C)[C@@H]([C@H](C)C[C@H](C=C(C)C)OC(=O)c4ccc([N+](=O)[O-])cc4)CC[C@@]3(C)[C@H]12 [KARAVOATE J],Non-toxic,,inactive,inactive,,,,inactive
COc1ccc(C(=O)O[C@@H](C=C(C)C)C[C@@H](C)[C@H]2CC[C@@]3(C)[C@@H]4[C@@H](OC)C=C5[C@@H](CC[C@H](O)C5(C)C)[C@]4(C)CC[C@]23C)cc1 [KARAVOATE M],Non-toxic,87,,,14,99,,
COc1ccc(C(=O)O[C@H]2CC[C@@H]3C(=C[C@H](OC)[C@@H]4[C@@]3(C)CC[C@]3(C)[C@@H]([C@H](C)C[C@H](C=C(C)C)OC(=O)c5ccc(OC)cc5)CC[C@@]43C)C2(C)C)cc1 [KARAVOATE N],Non-toxic,,inactive,inactive,,,,inactive
CC(=O)O[C@H]1C=C2[C@@H](CC[C@H](OC(C)=O)C2(C)C)[C@]2(C)CC[C@]3(C)[C@@H]([C@H](C)C[C@H](C=C(C)C)OC(C)=O)CC[C@@]3(C)[C@H]12 [TRIACETYLBALSAMINOL F],Non-toxic,,Active,Active,,,,Active
